# Values joined by “and” are separate entries in the source; they are usually repeats but may differ in a detail not shown here. Equal values may be shown once. Where a name gives a salt, the structure may show the parent alone.
# Experiments:
# [1] = tested on: melanotic melanoma B16; assay: Melanotic Melanoma B16 Test; type: in vivo, C57BC/6 mice
# Protocol: The animals used were C57BC/6 mice, all of the same sex, weighing a minimum of 17 g and all within a 3 g weight range. There were normally 10 animals per test group. A 1.0 g portion of melanotic melanoma B16 tumor was homogenized in 10 ml of cold balanced salt solution and a 0.5 ml aliquot of the homogenate was implanted intraperitoneally into each of the test mice. The test compounds were administered intraperitoneally on days one through nine (relative to tumor inoculation) at various doses. The animals were weighed and survivors recorded on a regular basis for 60 days. The median survival time and the ratio of survival time for treated (T)/control (C) animals were calculated. The positive control compound was 1,4-dihydroxy-5,8-bis[[2-(2-hydroxyethylamino)-ethyl]amino]anthraquinone, dihydrochloride (U.S. Patent 4,197,249) given at the indicated doses by injection.
# [2] = tested on: lymphocytic leukemia P388; assay: Lymphocytic Leukemia P388 Test; type: in vivo, DBA/2 mice
# Protocol: Lymphocytic Leukemia P388 Test
# The animals used were DBA/2 mice all of one sex, weighing a minimum of 17 g and all within a 3 g weight range. There were 5 or 6 animals per test group. The tumor transplant was by intraperitoneal injection of 0.1 ml of dilute ascitic fluid containing 10^6 cells of lymphocytic leukemia P388. The test compounds were administered intraperitoneally on days 1, 5 and 9 (relative to tumor inoculation) at various doses. The animals were weighed and survivors were recorded on a regular basis for 30 days. The median survival time and the ratio of survival time for treated (T)/control (C) animals were calculated. The positive control compound was 1,4-dihydroxy-5,8-bis--[ [2-(2-hydroxyethylamino)ethyl ]amino]anthraquinone, dihydrochloride (U.S. Patent 4,197,249) given at the indicated doses by injection.
# [3] = Dose 0.025 mg/kg by injection, dihydrochloride, 0.025 mg/kg
# [4] = Dose 0.1 mg/kg by injection, dihydrochloride, 0.1 mg/kg
# [5] = Dose 0.2 mg/kg intraperitoneally on days one through nine
# [6] = Dose 0.4 mg/kg by injection, dihydrochloride, 0.4 mg/kg
# [7] = Dose 0.8 mg/kg intraperitoneally on days one through nine
# [8] = Dose 1.6 mg/kg by injection, dihydrochloride, 1.6 mg/kg
# [9] = Dose 0.025 mg/kg intraperitoneally on days 1, 5 and 9, dihydrochloride, 0.025 mg/kg
# [10] = Dose 0.1 mg/kg intraperitoneally on days 1, 5 and 9, dihydrochloride, 0.1 mg/kg
# [11] = Dose 0.2 mg/kg intraperitoneally on days 1, 5 and 9
# [12] = Dose 0.4 mg/kg intraperitoneally on days 1, 5 and 9, dihydrochloride, 0.4 mg/kg
# [13] = Dose 0.8 mg/kg intraperitoneally on days 1, 5 and 9
# [14] = Dose 1.6 mg/kg intraperitoneally on days 1, 5 and 9, dihydrochloride, 1.6 mg/kg
# [15] = Dose 1.5 mg/kg intraperitoneally on days one through nine
# [16] = Dose 6 mg/kg intraperitoneally on days one through nine
# [17] = Dose 25 mg/kg intraperitoneally on days one through nine
# [18] = Dose 100 mg/kg intraperitoneally on days one through nine
# [19] = Dose 3 mg/kg intraperitoneally on days 1, 5 and 9
# [20] = Dose 12 mg/kg intraperitoneally on days 1, 5 and 9
# [21] = Dose 50 mg/kg intraperitoneally on days 1, 5 and 9
smiles,measurement,setting,value
"O=C1c2c(O)ccc(O)c2C(=O)c2c(NCCNCCO)ccc(NCCNCCO)c21 [Positive Control, 1,4-dihydroxy-5,8-bis--[ [2-(2-hydroxyethylamino)ethyl]amino]anthraquinone, dihydrochloride, reference compound]",Median Survival,[1]; [3],28 days and 26 days and 33 days and 28.5 days
same,T/C x 100 (%),[1]; [3],137% and 161% and 133%
same,Median Survival,[1]; [4],36 days and 31.5 days and 39 days and 32 days and 42 days
same,T/C x 100 (%),[1]; [4],176% and 166% and 190% and 133% and 195%
same,Median Survival,[1]; [5],32 days
same,T/C x 100 (%),[1]; [5],158%
same,Median Survival,[1]; [6],36 days and >60 days and 58 days
same,T/C x 100 (%),[1]; [6],178% and >293% and >317% and >250% and 270%
same,Median Survival,[1]; [7],35 days
same,T/C x 100 (%),[1]; [7],173%
same,Median Survival,[1]; [8],>60 days and 38 days and 37 days
same,T/C x 100 (%),[1]; [8],>293% and >297% and 200% and >250% and 172%
same,Median Survival,[2]; [9],17 days and 18 days and 16 days
same,T/C x 100 (%),[2]; [9],170% and 171% and 145%
same,Median Survival,[2]; [10],25.5 days and 14.5 days and 16.5 days and 21.5 days
same,T/C x 100 (%),[2]; [10],255% and 132% and 150% and 205% and 232%
same,Median Survival,[2]; [11],14.5 days
same,T/C x 100 (%),"[2]; Dose 0.2 mg/kg intraperitoneally on days 1, 5 and 9, dihydrochloride, 0.2 mg/kg",153% and 126%
same,Median Survival,[2]; [12],19.5 days and 27 days and >30 days and 19 days and 26.5 days
same,T/C x 100 (%),[2]; [12],205% and 169% and 270% and >273% and 173% and 252%
same,Median Survival,[2]; [13],18 days
same,T/C x 100 (%),"[2]; Dose 0.8 mg/kg intraperitoneally on days 1, 5 and 9, dihydrochloride, 0.8 mg/kg",189% and 156%
same,Median Survival,[2]; [14],>30 days and 19.5 days
same,T/C x 100 (%),[2]; [14],>316% and >261% and >300% and >273% and >286% and 177%
same,Median Survival,[2]; Dose 3.2 mg/kg by injection,>30 days
same,T/C x 100 (%),"[2]; Dose 3.2 mg/kg by injection, dihydrochloride, 3.2 mg/kg",>261% and >316%
"CCOC(=O)NCCNc1ccc(NCCNC(=O)OCC)c2c1C(=O)c1c(O)ccc(O)c1C2=O [[(9,10-Dihydro-5,8-dihydroxy-9,10-dioxo-1,4 anthracenediyl)bis(imino-2,1-ethanediyl)]bis-[carbamic acid]diethyl ester]",Median Survival,[1]; [15],29.5 days
same,T/C x 100 (%),[1]; [15],156%
same,Median Survival,[1]; [16],39.5 days
same,T/C x 100 (%),[1]; [16],209%
same,Median Survival,[1]; [17],>60 days
same,T/C x 100 (%),[1]; [17],>317%
same,Median Survival,[1]; [18],38.5 days
same,T/C x 100 (%),[1]; [18],204%
same,Median Survival,[2]; [11],11 days
same,T/C x 100 (%),[2]; [11],110%
same,Median Survival,[2]; [13],14 days
same,T/C x 100 (%),[2]; [13],140%
same,Median Survival,[2]; [19],17 days
same,T/C x 100 (%),[2]; [19],170%
same,Median Survival,[2]; [20],21 days
same,T/C x 100 (%),[2]; [20],210%
same,Median Survival,[2]; [21],21.5 days
same,T/C x 100 (%),[2]; [21],215%

# — patent EP0182135A2, “Novel bis-(substituted amino) anthraquinones” (AMERICAN CYANAMID COMPANY, priority 1984, dated 1986)
